# Literature values in patent US20050158775A1, “Novel plamid DNA comprising reoprter gene DNA and use of the same” (priority 1997, published 2005).
# Test system: PPAR γ
# Conditions: at a concentration of 10 μM or less; cited from earlier work
structure (smiles),measurement,value
CCCCC[C@H](O)/C=C/[C@@H]1[C@H]2C/C(=C/CCCC(=O)O)C[C@H]2C[C@H]1O [carbacyclin],PPAR γ agonist activity,does not show PPAR γ agonist activity
